{"source": "patent US20120269739A1", "about": "“COMPOSITION, USE, AND PRESERVATION METHOD” (L'OREAL, priority 2009, published 2012)", "key": {"[1]": {"tested_on": "Candida albicans (ATCC 10231)", "assay": "Action kinetics in broth", "type": "cell-based", "details": "Sabouraud broth pH 5.2±0.3, 35° C., gingerone 2%, sodium benzoate 3.3%, chlorhexidine digluconate 2.2%", "method": "(§1) The object of this example is to distinguish a compound according to the invention (gingerone) from the preserving agents conventionally used for protecting cosmetic formulations against microbial contamination, as regards the action kinetics.\n(§2) The solutions are prepared in Trypto-casein-soya (TS) broth for the bacteria and in Sabouraud broth for the yeast. These solutions are adjusted to pH 5.2±0.3.\n(§3) For each microbial solution, a growth control consisting of the appropriate culture medium alone is prepared.\nThe solutions in Sabouraud broth (36 ml) are inoculated with the yeast (4 ml of suspension) to a final content of 10^6 cfu/ml.\n(§4) The inoculated samples are then placed in an incubator-agitator at 35° C.±2° C. Samples are taken after 6 hours, 24 hours, 48 hours, 72 hours and 7 days. Decimal dilutions are then prepared in Eugon LT100 broth. These dilutions are left for 30 minutes±15 minutes at 25° C. in order to neutralize the preserving agents, and are then double-seeded on the surface of Petri dishes containing Eugon LT100 agar.\n(§5) The Petri dishes are then incubated in an oven at 35° C.±2° C. for a variable time depending on the strain concerned: • 48 hours; S. aureus; • 5 days: E. faecalis and C. albicans.\n(§6) The results are expressed for each solution, each strain and each contact time as the number of cfu/ml of stock solution."}, "[2]": {"tested_on": "Aspergillus niger (An) ATCC 6275", "assay": "Challenge Test (artificial contamination) of cosmetic formula", "type": "cell-based", "details": "22° C., chlorhexidine digluconate 0.3%, gingerone 2%", "text": "(§7) 5 pure microorganism cultures are used."}, "[3]": {"tested_on": "Escherichia coli (Ec) ATCC 8739", "assay": "Challenge Test (artificial contamination) of cosmetic formula", "type": "cell-based", "details": "22° C., chlorhexidine digluconate 0.3%, gingerone 2%", "text": "as §7"}, "[4]": {"tested_on": "Enterococcus faecalis (Ef) ATCC 33186", "assay": "Challenge Test (artificial contamination) of cosmetic formula", "type": "cell-based", "details": "22° C., chlorhexidine digluconate 0.3%, gingerone 2%", "text": "as §7"}, "[5]": {"tested_on": "Candida albicans (Ca) ATCC 10231", "assay": "Challenge Test (artificial contamination) of cosmetic formula", "type": "cell-based", "details": "22° C., chlorhexidine digluconate 0.3%, gingerone 2%; for Log reduction number after 7 days of contact, relative to the control, Candida albicans: Amt weight %: sodium benzoate 0.6%", "text": "as §7"}, "[6]": {"tested_on": "collection microbial strains (bacteria, yeasts and moulds)", "assay": "Challenge Test, overall finding over strains and formulas", "type": "cell-based", "details": "three formulas, five strains, gingerone 2%"}, "[7]": {"tested_on": "bacteria and yeast", "assay": "Action kinetics, overall conclusion", "type": "cell-based", "details": "gingerone 2%; in particular on the bacteria", "method": "as §1, §4"}, "[8]": {"tested_on": "Enterococcus faecalis (ATCC 33186)", "assay": "Action kinetics in broth", "type": "cell-based", "details": "TS broth pH 5.2±0.3, 35° C., gingerone 2%, sodium benzoate 3.3%, chlorhexidine digluconate 2.2%", "method": "as §1, §2, §3\n(§8) The solutions in TS broth (36 ml) are inoculated separately with each of the bacteria (4 ml of microbial suspension) to a final content of 10^6 cfu/ml of mixture.\nas §4, §5, §6"}, "[9]": {"tested_on": "Staphylococcus aureus (ATCC 6538)", "assay": "Action kinetics in broth", "type": "cell-based", "details": "TS broth pH 5.2±0.3, 35° C., gingerone 2%, sodium benzoate 3.3%, chlorhexidine digluconate 2.2%", "method": "as §1, §2, §3, §8, §4, §5, §6"}, "[10]": {"tested_on": "Pseudomonas aeruginosa (Pa) ATCC 19429", "assay": "Challenge Test (artificial contamination) of cosmetic formula", "details": "22° C., chlorhexidine digluconate 0.3%, gingerone 2%", "quoted_text": "The antimicrobial efficacy of a compound of formula (I) was evaluated via the Challenge Test or artificial contamination method.\nThe method of the challenge test consists of an artificial contamination of the sample with collection microbial strains (bacteria, yeasts and moulds) and evaluation of the number of revivable microorganisms seven days after the inoculation.\nThe gram-negative bacteria (Escherichia coli and Pseudomonas aeruginosa), gram-positive bacteria (Enterococcus faecalis), yeast (Candida albicans) and mould (Aspergillus niger) are seeded in the subculturing medium, respectively, the day before the inoculation for the bacteria and the yeast, and five days before the inoculation for the mould.\nAfter homogenizing the microbial suspension, 0.2 ml of inoculum is introduced into each pill bottle (the suspensions are used pure: between 1×10^8 and 3×10^8 cfu per ml) and the microbial suspension in the 20 g of product (=cosmetic formula) is homogenized thoroughly using a spatula.\nThe content of microorganisms present in the product corresponds after homogenization to a concentration of 10^6 microorganisms per gram of product, i.e. inoculation to 1% of an inoculum containing 10^8 microorganisms per ml.\nAfter 7 days of contact time between the microorganisms and the product at 22° C.±2° C. and in darkness, decimal dilutions are performed and the number of revivable microorganisms remaining in the product is counted."}, "[11]": {"details": "1st formula O/W emulsion, Amt weight %: phenoxyethanol 1%, sodium benzoate 0.6%"}, "[12]": {"details": "2nd formula lotion (pH 7 ± 0.2), Amt weight %: sodium benzoate 0.6%, phenoxyethanol 1%"}, "[13]": {"details": "3rd formula O/W emulsion, Amt weight %: sodium benzoate 0.6%"}}, "data": [{"smiles": "COc1cc(CCC(C)=O)ccc1O", "note": "[Gingerone, gingerone]", "values": [{"measurement": "Number of cfu counted after strain/solution contact time, Candida albicans", "setting": "[1]; contact time 0 hours", "result": "2.9 × 10^6 cfu/ml"}, {"measurement": "Number of cfu counted after strain/solution contact time, Candida albicans", "setting": "[1]; contact time 6 hours", "result": "2.9 × 10^2 cfu/ml"}, {"measurement": "Number of cfu counted after strain/solution contact time, Candida albicans", "setting": "[1]; contact time 24 hours", "result": "<10", "unit": "cfu/ml"}, {"measurement": "Number of cfu counted after strain/solution contact time, Candida albicans", "setting": "[1]; contact time 48 hours", "result": "<10", "unit": "cfu/ml"}, {"measurement": "Number of cfu counted after strain/solution contact time, Candida albicans", "setting": "[1]; contact time 72 hours", "result": "<10", "unit": "cfu/ml"}, {"measurement": "Number of cfu counted after strain/solution contact time, Candida albicans", "setting": "[1]; contact time 168 hours", "result": "<10", "unit": "cfu/ml"}, {"measurement": "Log reduction number after 7 days of contact, relative to the control, A. niger", "setting": "[2]; [11]", "result": ">4", "unit": "Log"}, {"measurement": "Log reduction number after 7 days of contact, relative to the control, A. niger", "setting": "[2]; [12]", "result": ">4", "unit": "Log"}, {"measurement": "Log reduction number after 7 days of contact, relative to the control, A. niger", "setting": "[2]; [13]", "result": 0.6, "unit": "Log"}, {"measurement": "Log reduction number after 7 days of contact, relative to the control, E. coli", "setting": "[3]; [11]", "result": ">4", "unit": "Log"}, {"measurement": "Log reduction number after 7 days of contact, relative to the control, E. coli", "setting": "[3]; [12]", "result": ">4", "unit": "Log"}, {"measurement": "Log reduction number after 7 days of contact, relative to the control, E. coli", "setting": "[3]; [13]", "result": ">4", "unit": "Log"}, {"measurement": "Log reduction number after 7 days of contact, relative to the control, E. faecalis", "setting": "[4]; [11]", "result": ">4", "unit": "Log"}, {"measurement": "Log reduction number after 7 days of contact, relative to the control, E. faecalis", "setting": "[4]; [12]", "result": ">0.5", "unit": "Log"}, {"measurement": "Log reduction number after 7 days of contact, relative to the control, E. faecalis", "setting": "[4]; [13]", "result": ">4", "unit": "Log"}, {"measurement": "Log reduction number after 7 days of contact, relative to the control, C. albicans", "setting": "[5]; [11]", "result": ">4", "unit": "Log"}, {"measurement": "Log reduction number after 7 days of contact, relative to the control, Candida albicans", "setting": "[5]; 2nd formula lotion (pH 7 ± 0.2), phenoxyethanol 1%", "result": ">3", "unit": "Log"}, {"measurement": "Log reduction number after 7 days of contact, relative to the control, Candida albicans", "setting": "[5]; 3rd formula O/W emulsion", "result": ">4", "unit": "Log"}, {"measurement": "antimicrobial efficacy across strains and formulatory supports", "setting": "[6]", "result": "efficient irrespective of the strain and of the support"}, {"measurement": "action kinetics in comparison with conventional preserving agents", "setting": "[7]", "result": "much more slowly"}, {"measurement": "Number of cfu counted after strain/solution contact time, Enterococcus faecalis", "setting": "[8]; contact time 0 hours", "result": "2.5 × 10^6 cfu/ml"}, {"measurement": "Number of cfu counted after strain/solution contact time, Enterococcus faecalis", "setting": "[8]; contact time 6 hours", "result": "4.4 × 10^5 cfu/ml"}, {"measurement": "Number of cfu counted after strain/solution contact time, Enterococcus faecalis", "setting": "[8]; contact time 24 hours", "result": "1.2 × 10^4 cfu/ml"}, {"measurement": "Number of cfu counted after strain/solution contact time, Enterococcus faecalis", "setting": "[8]; contact time 48 hours", "result": "6.3 × 10^2 cfu/ml"}, {"measurement": "Number of cfu counted after strain/solution contact time, Enterococcus faecalis", "setting": "[8]; contact time 72 hours", "result": 80, "unit": "cfu/ml"}, {"measurement": "Number of cfu counted after strain/solution contact time, Enterococcus faecalis", "setting": "[8]; contact time 168 hours", "result": "<10", "unit": "cfu/ml"}, {"measurement": "Number of cfu counted after strain/solution contact time, Staphylococcus aureus", "setting": "[9]; contact time 0 hours, first series", "result": "1.7 × 10^6 cfu/ml"}, {"measurement": "Number of cfu counted after strain/solution contact time, Staphylococcus aureus", "setting": "[9]; contact time 0 hours, second series of Table 1", "result": "2.5 × 10^6 cfu/ml"}, {"measurement": "Number of cfu counted after strain/solution contact time, Staphylococcus aureus", "setting": "[9]; contact time 6 hours, first series", "result": "1.2 × 10^6 cfu/ml"}, {"measurement": "Number of cfu counted after strain/solution contact time, Staphylococcus aureus", "setting": "[9]; contact time 6 hours, second series of Table 1", "result": "1.2 × 10^6 cfu/ml"}, {"measurement": "Number of cfu counted after strain/solution contact time, Staphylococcus aureus", "setting": "[9]; contact time 24 hours, first series", "result": "1.7 × 10^5 cfu/ml"}, {"measurement": "Number of cfu counted after strain/solution contact time, Staphylococcus aureus", "setting": "[9]; contact time 24 hours, second series of Table 1", "result": "1.6 × 10^5 cfu/ml"}, {"measurement": "Number of cfu counted after strain/solution contact time, Staphylococcus aureus", "setting": "[9]; contact time 48 hours, first series", "result": "8.1 × 10^3 cfu/ml"}, {"measurement": "Number of cfu counted after strain/solution contact time, Staphylococcus aureus", "setting": "[9]; contact time 48 hours, second series of Table 1", "result": "9.6 × 10^3 cfu/ml"}, {"measurement": "Number of cfu counted after strain/solution contact time, Staphylococcus aureus", "setting": "[9]; contact time 72 hours, first series", "result": 40, "unit": "cfu/ml"}, {"measurement": "Number of cfu counted after strain/solution contact time, Staphylococcus aureus", "setting": "[9]; contact time 72 hours, second series of Table 1", "result": "1.3 × 10^2 cfu/ml"}, {"measurement": "Number of cfu counted after strain/solution contact time, Staphylococcus aureus", "setting": "[9]; contact time 168 hours, first series", "result": "<100", "unit": "cfu/ml"}, {"measurement": "Number of cfu counted after strain/solution contact time, Staphylococcus aureus", "setting": "[9]; contact time 168 hours, second series of Table 1", "result": "<10", "unit": "cfu/ml"}, {"measurement": "Log reduction number after 7 days of contact, relative to the control, P. aeruginosa", "setting": "[10]; [11]", "result": ">4", "unit": "Log"}, {"measurement": "Log reduction number after 7 days of contact, relative to the control, P. aeruginosa", "setting": "[10]; [12]", "result": ">3", "unit": "Log"}, {"measurement": "Log reduction number after 7 days of contact, relative to the control, P. aeruginosa", "setting": "[10]; [13]", "result": ">4", "unit": "Log"}]}]}
